IC50 data for 33 compounds are collected here from patent publication US6967196B1, “Sulfonamide compounds and uses thereof” (Bristol-Myers Squibb Company, priority 1999, dated 2005).

Where a name gives a salt, the structure may show the parent alone.

One assay relates to amyloid β production in transfected H4 (human neuroglioma) cells stably expressing APP constructs. The assay can be described thus: In vitro cell-based assay of inhibitors of amyloid β production (ELISA). To be noted: Homo sapiens, 16 h, transfected H4 cells expressing APP, approximately 16 hours incubation, amyloid β in medium by ELISA; read-out: ACTIVITY (IC50, inhibition of amyloid β production). The method, then: In Vitro Cell-Based Assay of Inhibitors of Amyloid β Production
Transfected H4 (human neuroglioma) cells stably expressing APP constructs are used to identify and assess inhibitors of Aβ production. In brief, cells lines are exposed to compounds, and the effect of each compound on amyloid β production is determined by measuring the amount of amyloid β produced using an enzyme linked immunosorbent assay (ELISA) that detects amyloid β (see, for example, Seubert et al., (1992) Nature, 359:325-327).
Transfected cells that stably express wild-type and variant forms of APP are plated in 96-well format plates at a density sufficient for the rapid detection of the secreted amyloid β (experimentally predetermined for a particular stable cell population). Cells are plated at least six hours prior to the introduction of the test compound at which time the growth medium is replaced by fresh medium containing the compound to be tested. All synthetic agents are initially screened at doses ranging from 10-100 μM. Higher dilutions of agents can be used to minimize cytotoxicity. Incubation of cells with a test compound continues for approximately 16 hours at which time aliquots of medium from each well are removed and assayed for amyloid β.
ELISA is carried out by methods known in the art (see, e.g., Haass et al., Antibodies: A Laboratory Manual, Harlow and lane, Editors, Cold Spring Harbor Press, 1988) The capture antibody is typically a mouse monoclonal (IgG1/kβ-APPa) which recognizes the carboxyl terminal epitope of amyloid β. The specificity of the capture antibody insures measurement of amyloid β without interference from other secreted APP fragments that share amino acid sequence (amyloid β 1-16) homology with amyloid β but lack the carboxy-terminal region. The detecting antibody is typically an affinity-purified rabbit polyclonal antibody that is specific for the amino terminus of amyloid β.
Results from test compounds are compared to results obtained when cells are treated with control agents. Amyloid β levels are determined by comparison to a standard curve obtained by subjecting a range of known amounts of amyloid β to the ELISA.
A compound is identified as “active” when it inhibits cellular production of amyloid β relative to levels in control samples by at least 50% at the initial tested concentration without significant cytotoxicity. Active compounds are then assayed in dose-response experiments to determine the lowest dose of compound necessary for inhibition of amyloid β production.
(ELISA stands for enzyme-linked immunosorbent assay.)
As a reminder, the IC50 is the concentration needed to halve the response being measured. For `C[C@H](C(=O)NCCc1ccc(O)cc1)N(c1cc(Cl)ccc1F)S(=O)(=O)c1ccc(Cl)cc1` [Example 1331], the IC50 was above 500 nM.
Take `C[C@H](C(=O)NCCc1c(Cl)cccc1Cl)N(c1cc(Cl)ccc1F)S(=O)(=O)c1ccc(Cl)cc1` [Example 1314]: the IC50 was 100 to 500 nM.
Same read-out and setting: next, `C[C@H](C(=O)NCCc1ccc(F)cc1)N(c1cc(Cl)ccc1F)S(=O)(=O)c1ccc(Cl)cc1` [Example 1326]: above 500 nM.
In the case of `C[C@H](C(=O)NCc1cccs1)N(c1cc(Cl)ccc1F)S(=O)(=O)c1ccc(Cl)cc1` [Example 1357], the IC50 is 100 to 500 nM.
Still for that read-out and setting: next, `COCCCNC(=O)[C@@H](C)N(c1cc(Cl)ccc1F)S(=O)(=O)c1ccc(Cl)cc1` [Example 1346]: 100 to 500 nM.

Still in this assay, the particulars now being: Homo sapiens, 16 h, transfected H4 cells stably expressing APP constructs; approximately 16 hours incubation; amyloid β in medium by ELISA; read-out: ACTIVITY (IC50, inhibition of amyloid β production).
For `C[C@H](CCCS(=O)(=O)O)N(c1cc(Cl)ccc1Cl)S(=O)(=O)c1ccc(Cl)cc1` [Example 1194, (4R)-4-[N-[2,5-dichlorophenyl][(4-chlorophenyl)sulfonyl]amino]pentylsulfonic acid], the half-inhibitory concentration (IC50) lay in the range of 100 to 500 nM.

The same assay, now with this note: Homo sapiens, 16 h, transfected H4 cells stably expressing APP; approximately 16 hours incubation; amyloid β in medium by ELISA; read-out: ACTIVITY (IC50, inhibition of amyloid β production).
For the compound `O=S(=O)(c1ccc(Cl)cc1)N(Cc1ccccc1O)c1cc(F)ccc1F` [Example 1054, 4-chloro-N-(2,5-difluorophenyl)-N-(2-hydroxybenzyl)benzenesulfonamide], the half-maximal inhibitory concentration (IC50) is above 500 nM.
Still for that read-out and setting: next, `O=S(=O)(c1ccc(Cl)cc1)N(Cc1cc(Cl)ccc1O)c1ccccc1` [Example 975, 4-chloro-N-(5-chloro-2-hydroxybenzyl)-N-phenylbenzenesulfonamide]: above 500 nM; `C[C@H](c1ccccc1OCCCn1ccnc1)N(c1cc(F)ccc1F)S(=O)(=O)c1ccc(Cl)cc1` [Example 908, 4-chloro-N-(2,5-difluorophenyl)-N-((1R)-1-{2-[3-(1H-imidazol-1-yl)propoxy]phenyl}ethyl)benzenesulfonamide hydrochloride]: above 500 nM.
Same read-out and setting: with `O=S(=O)(c1ccc(Cl)cc1)N(Cc1cc(Cl)ccc1OCCCN1CCCCC1)c1ccccc1` [Example 964, 4-chloro-N-{5-chloro-2-[3-(1-piperidinyl)propoxy]benzyl}-N-phenylbenzenesulfonamide hydrochloride] the figure was above 500 nM.
Take `O=S(=O)(c1ccc(Cl)cc1)n1c(-c2ccccc2OCCCN2CCCCC2)c(Cl)c2ccccc21` [Example 1043, 3-chloro-1-[(4-chlorophenyl)sulfonyl]-2-{2-[3-(1-piperidinyl)propoxy]phenyl}-1H-indole trifluoroacetate]: the IC50 was above 500 nM.
Still for that read-out and setting: with `O=S(=O)(c1ccc(Cl)cc1)N(Cc1ccccc1O)c1ccccc1` [Example 1081, 4-chloro-N-(2-hydroxybenzyl)-N-phenylbenzenesulfonamide] the figure was above 10000 nM.

The assay is the same for the next values; noted with them: transfected H4 cells stably expressing APP constructs; approximately 16 hours incubation; amyloid β in medium by ELISA; read-out: ACTIVITY (IC50, inhibition of amyloid β production).
`CSCCC[C@@H](C)N(c1cc(Cl)ccc1Cl)S(=O)(=O)c1ccc(Cl)cc1` [Example 1176, 4-chloro-N-[2,5-dichlorophenyl]-N-[1(R)-methyl-(4-methylthio)butyl]benzenesulfonamide]: the half-inhibitory concentration (IC50) was at most 25 nM.
The same measure, in the same setting: next, `CC(C)[S+]([O-])CCC[C@@H](C)N(c1cc(F)ccc1F)S(=O)(=O)c1ccc(Cl)cc1` (stereo partly drawn) [Example 1179]: at most 25 nM.
Same read-out and setting: next, `C[C@H](CCC[S+](C)[O-])N(c1cc(Cl)ccc1CO)S(=O)(=O)c1ccc(Cl)cc1` (stereo partly drawn) [Example 1224, 4-chloro-N-[5-chloro-2-(hydroxymethyl)phenyl]-N-[1(R)-methyl-(4-methylsulfinyl)butyl]benzenesulfonamide]: at most 25 nM; “4-chloro-2-({[(4-chlorophenyl)sulfonyl]anilino}methyl)phenyl trifluoromethanesulfonate [Example 1090]”: above 10000 nM; `CSC1CCN(CCC[C@@H](C)N(c2cc(Cl)ccc2Cl)S(=O)(=O)c2ccc(Cl)cc2)C1` (stereo partly drawn) [Example 1148]: 100 to 500 nM.

Staying with this assay, now noted: transfected H4 cells stably expressing APP; approx. 16 h incubation; amyloid β in medium by ELISA; read-out: ACTIVITY (IC50, inhibition of amyloid β production).
On to “N-{3-[2-(1-{[(4-chlorophenyl)sulfonyl]-2,5-difluoroanilino}ethyl)phenoxy]propyl}-4-iodo-N-methylbenzamide [Example 719]”, for which the half-inhibitory concentration (IC50) was 100 to 500 nM.
Same read-out and setting: next, “2-[2-((1R)-1-{[(4-chlorophenyl)sulfonyl]-2,5-difluoroanilino}ethyl)phenyl]ethyl 1,2,3,4-tetrahydro-1-naphthalenylcarbamate [Example 644]”: 100 to 500 nM; “2,4,6-trichloro-N-{3-[2-(1-{[(4-chlorophenyl)sulfonyl]-2,5-difluoroanilino}ethyl)phenoxy]propyl}-N-methylbenzamide [Example 713]”: 100 to 500 nM; “N-{2-[2-(1-{[(4-chlorophenyl)sulfonyl]-2,5-difluoroanilino}ethyl)phenoxy]ethyl}-N-ethylbutanamide [Example 646]”: 100 to 500 nM.
The same measure, in the same setting: with `C[C@H](c1ccccc1COC(=O)NCc1ccc2c(c1)OCO2)N(c1cc(F)ccc1F)S(=O)(=O)c1ccc(Cl)cc1` [Example 673, 2-((1R)-1-{[(4-chlorophenyl)sulfonyl]-2,5-difluoroanilino}ethyl)benzyl 1,3-benzodioxol-5-ylmethylcarbamate] the figure was 100 to 500 nM.

The same assay, now with this note: transfected H4 cells stably expressing APP; approximately 16 hours incubation; amyloid β in medium by ELISA; Table B; read-out: ACTIVITY (IC50, inhibition of amyloid β production).
For “2-((1R)-1-{[(4-chlorophenyl)sulfonyl]-2,5-difluoroanilino}ethyl)benzyl 1-piperidinecarboxylate [Example 284]”, the IC50 fell in the range of 25 to 50 nM.
The same measure, in the same setting: with “2-[2-((1R)-1-{[(4-chlorophenyl)sulfonyl]-2,5-difluoroanilino}ethyl)-5-fluorophenyl]ethyl 2,5-difluorobenzylcarbamate [Example 358]” the figure was 50 to 100 nM.
The same measure, in the same setting: next, `O=S(=O)(c1ccc(Cl)cc1)N(Cc1ccccc1OCCCN1CCCC(O)C1)c1ccccc1` (stereo not drawn) [Example 310, 4-Chloro-N-{2-[3-(3-hydroxy-1-piperidinyl)propoxy]benzyl}-N-phenylbenzenesulfonamide Hydrochloride]: 50 to 100 nM.

The same assay, now with this note: transfected H4 cells stably expressing APP; approximately 16 hours incubation; amyloid β in medium by ELISA; read-out: ACTIVITY (IC50, inhibition of amyloid β production).
For `C[C@H](c1ccc(F)cc1CCCC(=O)O)N(c1cc(F)ccc1F)S(=O)(=O)c1ccc(Cl)cc1` [Example 1068, 4-[2-((1R)-1-{[(4-chlorophenyl)sulfonyl]-2,5-difluoroanilino}ethyl)-5-fluorophenyl]butanoic acid], the IC50 is above 500 nM.
Same read-out and setting: next, “3,5-dichloro-N-{3-[2-({[(4-chlorophenyl)sulfonyl]-2,5-difluoroanilino}methyl)phenoxy]propyl}-N-methylbenzamide [Example 1002]”: above 500 nM; “3-[2-((1R)-1-{[(4-chlorophenyl)sulfonyl]-2,5-difluoroanilino}ethyl)-5-fluorophenyl]-1-propanesulfonic acid [Example 881]”: above 500 nM; “N-{3-[2-({[(4-chlorophenyl)sulfonyl]-2,5-difluoroanilino}methyl)phenoxy]propyl}-3,4-dimethoxy-N-methylbenzamide [Example 960]”: above 500 nM.
On the same count and under the same terms, next, `C[C@H](c1ccc(F)cc1CCCC(=O)O)N(c1cc(F)ccc1F)S(=O)(=O)c1ccc(Cl)cc1` [Example 1073, 4-[2-((1R)-1-{[(4-chlorophenyl)sulfonyl]-2,5-difluoroanilino}ethyl)-5-fluorophenyl]butanoic acid]: above 500 nM.
Still for that read-out and setting: next, “2-((1R)-1-{[(4-chlorophenyl)sulfonyl]-2,5-difluoroanilino}ethyl)-5-fluorobenzyl 2-(1-pyrrolidinyl)ethylcarbamate [Example 914]”: above 500 nM; `C[C@H](c1ccc(F)cc1CCCC(=O)O)N(c1cc(F)ccc1F)S(=O)(=O)c1ccc(Cl)cc1` [Example 1069, 4-[2-((1R)-1-{[(4-chlorophenyl)sulfonyl]-2,5-difluoroanilino}ethyl)-5-fluorophenyl]butanoic acid]: above 500 nM.
Turning to “N-{3-[2-({[(4-chlorophenyl)sulfonyl]-2,5-difluoroanilino}methyl)phenoxy]propyl}-N,4-dimethylbenzamide [Example 893]”, the IC50 is above 500 nM.
